Experimental data taken from patent publication US6869957B1, “Non-peptide tachykinin receptor antagonists” (Eli Lilly and Company, priority 1993, dated 2005).

Key:
human NK-2 receptor = molecular target: T1, human NK-2 receptor (Homo sapiens, UniProt P21452); test: NK-2 Receptor Binding Assay ([125I]iodohistidyl-neurokinin A, CHO-hNK-2R membranes); details: for IC50: inhibits fifty percent of binding of [125I]iodohistidyl-neurokinin A to CHO-hNK-2R membranes; for NK-2 percent inhibition of binding: @ 10 μM
T1 construct: expressed in transfected cells; host or cells: CHO-hNK-2R cells (CHO-derived), membrane preparation
T1 sequence (P21452 1-398): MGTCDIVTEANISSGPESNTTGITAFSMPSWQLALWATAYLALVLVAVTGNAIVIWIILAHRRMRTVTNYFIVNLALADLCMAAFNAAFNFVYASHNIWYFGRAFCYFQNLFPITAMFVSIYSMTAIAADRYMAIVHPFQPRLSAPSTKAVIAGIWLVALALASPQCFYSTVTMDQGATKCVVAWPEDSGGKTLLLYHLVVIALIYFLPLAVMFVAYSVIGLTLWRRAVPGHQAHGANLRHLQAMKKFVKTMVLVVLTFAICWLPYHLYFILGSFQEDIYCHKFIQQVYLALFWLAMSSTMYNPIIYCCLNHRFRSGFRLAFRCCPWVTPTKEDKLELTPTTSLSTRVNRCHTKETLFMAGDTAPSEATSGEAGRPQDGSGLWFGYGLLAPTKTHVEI
Description: The biological activity of the compounds of the present invention was evaluated employing an initial screening assay which rapidly and accurately measured the binding of the tested compound to known NK-1 and NK-2 receptor sites. Assays useful for evaluating tachykinin receptor antagonists are well known in the art. See. e.g., J. Jukic, et al., Life Sciences, 49:1463-1469 (1991); N. Kucharczyk, et al., Journal of Medicinal Chemistry, 36:1654-1661 (1993); N. Rouissi, et al., Biochemical and Biophysical Research Communications, 176:894-901 (1991).
NK-2 Receptor Binding Assay
The CHO-hNK-2R cells, a CHO-derived cell line transformed with the human NK-2 receptor, expressing about 400,000 such receptors per cell, were grown in 75 cm^2 flasks or roller bottles in minimal essential medium (alpha modification) with 10% fetal bovine serum. The gene sequence of the human NK-2 receptor is given in N. P. Gerard, et al., Journal of Biological Chemistry, 265:20455-20462 (1990).
For preparation of membranes, 30 confluent roller bottle cultures were dissociated by washing each roller bottle with 10 ml of Dulbecco's phosphate buffered saline (PBS) without calcium and magnesium, followed by addition of 10 ml of enzyme-free cell dissociation solution (PBS-based, from Specialty Media, Inc.). After an additional 15 minutes, the dissociated cells were pooled and centrifuged at 1,000 RPM for 10 minutes in a clinical centrifuge. Membranes were prepared by homogenization of the cell pellets in 300 ml 50 mM Tris buffer, pH 7.4 with a Tekma® homogenizer for 10-15 seconds, followed by centrifugation at 12,000 RPM (20,000×g) for 30 minutes using a Beckman JA-14® rotor. The pellets were washed once using the above procedure. and the final pellets were resuspended in 100-120 ml 50 mM Tris buffer, pH 7.4, and 4 ml aliquots stored frozen at −70° C. The protein concentration of this preparation was 2 mg/ml.
For the receptor binding assay, one 4-ml aliquot of the CHO-hNK-2R membrane preparation was suspended in 40 ml of assay buffer containing 50 mM Tris, pH 7.4, 3 mM manganese chloride, 0.02% bovine serum albumin (BSA) and 4 μg/ml chymostatin. A 200 μl volume of the homogenate (40 μg protein) was used per sample. The radioactive ligand was [^125I]iodohistidyl-neurokinin A (New England Nuclear, NEX-252), 2200 Ci/mmol. The ligand was prepared in assay buffer at 20 nCi per 100 μl; the final concentration in the assay was 20 pM. Non-specific binding was determined using 1 μM eledoisin. Ten concentrations of eledoisin from 0.1 to 1000 nM were used for a standard concentration-response curve.
All samples and standards were added to the incubation in 10 μl dimethylsulfoxide (DMSO) for screening (single dose) or in 5 μl DMSO for IC50 determinations. The order of additions for incubation was 190 or 195 μl assay buffer, 200 μl homogenate, 10 or 5 μl sample in DMSO, 100 μl radioactive ligand. The samples were incubated 1 hr at room temperature and then filtered on a 48 well Brandel cell harvester through GF/B filters which had been presoaked for two hours in 50 mM Tris buffer, pH 7.7, containing 0.5% BSA. The filter was washed 3 times with approximately 3 ml of cold 50 mm Tris buffer, pH 7.7. The filter circles were then punched into 12×75 mm polystyrene tubes and counted in a gamma counter.

NK-1 receptor = molecular target: T2, NK-1 receptor (Homo sapiens, UniProt P25103); test: NK-1 Receptor Binding Assay (125I-labeled substance P, IM9 cells); details: for IC50: inhibits fifty percent of binding of 125I-substance P to IM9 cells
T2 construct: endogenous in cells; host or cells: IM9 cells (human cell line), whole cells
Description: The biological activity of the compounds of the present invention was evaluated employing an initial screening assay which rapidly and accurately measured the binding of the tested compound to known NK-1 and NK-2 receptor sites. Assays useful for evaluating tachykinin receptor antagonists are well known in the art.
NK-1 Receptor Binding Assay
Radioreceptor binding assays were performed using a derivative of a previously published protocol.
The IM9 cell line is a well-characterized and readily available human cell line.
The reaction was terminated by filtration through a glass fiber filter harvesting system using filters previously soaked for 20 minutes in 0.1% polyethylenimine. Specific binding of labeled substance P was determined in the presence of 20 nM unlabeled ligand.

T2 sequence (P25103 whole entry): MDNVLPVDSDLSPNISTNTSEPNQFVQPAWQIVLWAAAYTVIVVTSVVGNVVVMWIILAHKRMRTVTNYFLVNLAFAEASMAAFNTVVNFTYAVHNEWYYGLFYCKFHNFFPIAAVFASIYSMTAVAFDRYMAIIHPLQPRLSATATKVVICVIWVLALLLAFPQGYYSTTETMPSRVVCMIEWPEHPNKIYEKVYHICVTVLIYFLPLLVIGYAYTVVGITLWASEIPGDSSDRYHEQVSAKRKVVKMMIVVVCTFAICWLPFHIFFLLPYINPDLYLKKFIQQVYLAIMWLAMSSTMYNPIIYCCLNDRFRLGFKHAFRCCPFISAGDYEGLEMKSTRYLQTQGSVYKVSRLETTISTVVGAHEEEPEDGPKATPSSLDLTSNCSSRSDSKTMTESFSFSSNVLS

IC50 (human NK-2 receptor)	IC50 (NK-1 receptor)	NK-1 percent inhibition of binding (NK-1 receptor; @ 1 μM)	NK-2 percent inhibition of binding (human NK-2 receptor)	NK-1 percent inhibition of binding (NK-1 receptor; @ 5 μM)	SMILES
3700 nM	7.3 nM				COc1ccccc1CN(CC(Cc1c[nH]c2ccccc12)NC(=O)CN1CCCC1)C(C)=O (stereo not shown) [Example 59]
3900 nM	24 nM				COc1ccccc1CN(CC(Cc1c[nH]c2ccccc12)NC(=O)CN1CCCCC1)C(C)=O (stereo not shown) [Example 60]
940 nM	7.2 nM				COc1ccccc1CN(CC(Cc1c[nH]c2ccccc12)NC(=O)CN1CCCCCC1)C(C)=O (stereo not shown) [Example 61]
5900 nM	43 nM				COc1ccccc1CN(CC(Cc1c[nH]c2ccccc12)NC(=O)CN1CCOCC1)C(C)=O (stereo not shown) [Example 62]
490 nM	74 nM				COc1ccccc1CN(CC(Cc1c[nH]c2ccccc12)NC(=O)CN1CCc2ccccc21)C(C)=O (stereo not shown) [Example 63]
600 nM	7.2 nM				COc1ccccc1CN(CC(Cc1c[nH]c2ccccc12)NC(=O)CN1CCC(c2ccccc2)CC1)C(C)=O (stereo not shown) [Example 65]
7200 nM	4.6 nM				COc1ccccc1CN(CC(Cc1c[nH]c2ccccc12)NC(=O)CN1CCC(N(C)C)CC1)C(C)=O (stereo not shown) [Example 66]
750 nM	3.8 nM				COc1ccccc1CN(CC(Cc1c[nH]c2ccccc12)NC(=O)CN1CC=C(c2ccccc2)CC1)C(C)=O (stereo not shown) [Example 67]
2400 nM	0.41 nM				COc1ccccc1CN(CC(Cc1c[nH]c2ccccc12)NC(=O)CN1CCC(NC(C)=O)(c2ccccc2)CC1)C(C)=O (stereo not shown) [Example 68]
830 nM	5.4 nM				COc1ccccc1CN(CC(Cc1c[nH]c2ccccc12)NC(=O)CN1CCN(c2ccc(Cl)cc2)CC1)C(C)=O (stereo not shown) [Example 69]
1000 nM	13 nM				COc1ccccc1CN(CC(Cc1c[nH]c2ccccc12)NC(=O)CN1CCN(c2cccc(C(F)(F)F)c2)CC1)C(C)=O (stereo not shown) [Example 70]
8900 nM	7.5 nM				COc1ccccc1CN(CC(Cc1c[nH]c2ccccc12)NC(=O)CN1CCN(C)CC1)C(C)=O (stereo not shown) [Example 71]
1000 nM	0.36 nM				COc1ccccc1CN(CC(Cc1c[nH]c2ccccc12)NC(=O)CN1CCN(C2CCCCC2)CC1)C(C)=O (stereo not shown) [Example 74]
1400 nM	69 nM				COc1ccccc1CN(C[C@H](Cc1c[nH]c2ccccc12)NC(=O)CN1CCN(C2CCCCC2)CC1)C(C)=O [Example 76]
630 nM	0.88 nM				COc1ccccc1CN(CC(Cc1c[nH]c2ccccc12)NC(=O)CN1CCN(Cc2ccccc2)CC1)C(C)=O (stereo not shown) [Example 77]
2100 nM	10 nM				COc1ccccc1CN(CC(Cc1c[nH]c2ccccc12)NC(=O)CN1CCN(c2ncccn2)CC1)C(C)=O (stereo not shown) [Example 78]
6100 nM	38 nM				COc1ccccc1CN(CC(Cc1c[nH]c2ccccc12)NC(=O)CN1CCN(C(C)=O)CC1)C(C)=O (stereo not shown) [Example 79]
3400 nM	19 nM				CCOC(=O)N1CCN(CC(=O)NC(Cc2c[nH]c3ccccc23)CN(Cc2ccccc2OC)C(C)=O)CC1 (stereo not shown) [Example 80]
1100 nM	13 nM				COc1ccccc1CN(CC(Cc1c[nH]c2ccccc12)NC(=O)CNCc1ccccn1)C(C)=O (stereo not shown) [Example 81]
1200 nM	13 nM				COc1ccccc1CN(CC(Cc1c[nH]c2ccccc12)NC(=O)CNCc1cccnc1)C(C)=O (stereo not shown) [Example 82]
5200 nM	8.4 nM				COc1ccccc1CN(CC(Cc1c[nH]c2ccccc12)NC(=O)CNCc1ccncc1)C(C)=O (stereo not shown) [Example 83]
5600 nM	120 nM				COc1ccccc1CN(CC(Cc1c[nH]c2ccccc12)NC(=O)c1ccccc1)C(C)=O (stereo not shown) [Example 88]
760 nM	85 nM				COc1ccccc1CN(CC(Cc1c[nH]c2ccccc12)NC(=O)CCCc1ccccc1)C(C)=O (stereo not shown) [Example 94]

The remaining lines, values behind:

SMILES	IC50 (human NK-2 receptor)	IC50 (NK-1 receptor)	NK-1 percent inhibition of binding (NK-1 receptor; @ 1 μM)	NK-2 percent inhibition of binding (human NK-2 receptor)	NK-1 percent inhibition of binding (NK-1 receptor; @ 5 μM)
CC(=O)N(CC1CCCCC1)CC(Cc1c[nH]c2ccccc12)NC(=O)CN1CCN(c2ccccc2)CC1 (stereo not shown) [Example 41]	930 nM	7.7 nM			
CC(=O)N(CC(Cc1c[nH]c2ccccc12)NC(=O)CN1CCN(c2ccccc2)CC1)c1ccccc1 (stereo not shown) [Example 42]	1200 nM		16% @		
CC(=O)N(CCc1ccccc1)CC(Cc1c[nH]c2ccccc12)NC(=O)CN1CCN(c2ccccc2)CC1 (stereo not shown) [Example 43]	39 nM	179 nM			
COc1ccccc1CNCC(Cc1c[nH]c2ccccc12)NC(=O)CN1CCC(N2CCCCC2)CC1 (stereo not shown) [Example 44]		25 nM		54 % at	
COc1ccccc1CNCC(Cc1c[nH]c2ccccc12)NC(=O)CN1CCC(N2CCCCC2)CC1 (stereo not shown) [Example 45]	5300 nM	65 nM			
CC(=O)N(Cc1ccccc1)CC(Cc1c[nH]c2ccccc12)NC(=O)CN1CCC(N2CCCCC2)CC1 (stereo not shown) [Example 46]	2400 nM	2.2 nM			
CC(=O)N(CC(Cc1c[nH]c2ccccc12)NC(=O)CN1CCC(N2CCCCC2)CC1)c1ccccc1 (stereo not shown) [Example 53]	5200 nM				58% @
CC(=O)N(CCc1ccccc1)CC(Cc1c[nH]c2ccccc12)NC(=O)CN1CCC(N2CCCCC2)CC1 (stereo not shown) [Example 54]	2100 nM	30.1 nM			
COc1ccccc1CN(CC(Cc1c[nH]c2ccccc12)NC(=O)CNCCNc1ccccc1)C(C)=O (stereo not shown) [Example 58]	340 nM	14 nM			
COc1ccccc1CN(C[C@@H](Cc1c[nH]c2ccccc12)NC(=O)CN1CCN(C2CCCCC2)CC1)C(C)=O [Example 75, (R)-1-[N-(2-methoxybenzyl)acetylamino]-3-(1H-indol-3-yl)-2-[N-(2-((4-cyclohexyl)piperazin-1-yl)acetyl)amino]propane]	850 nM	0.18 nM			
COc1ccccc1CN(CC(Cc1c[nH]c2ccccc12)NC(=O)CCCC(=O)c1ccccc1)C(C)=O (stereo not shown) [Example 98]	600 nM	21 nM			
CC(=O)NC(Cc1c[nH]c2ccccc12)CN(C(C)=O)C(C)c1ccccc1 (stereo not shown) [Example 99]			15% @	54% @	
CC(=O)NC(Cc1c[nH]c2ccccc12)CN(C(C)=O)C(C)c1ccccc1 (stereo not shown) [Example 100]			77% @	40% @	
CC(NCC(Cc1c[nH]c2ccccc12)NC(=O)CN1CCC(N2CCCCC2)CC1)c1ccccc1 (stereo not shown) [Example 101]	6000 nM	97 nM			
CC(NCC(Cc1c[nH]c2ccccc12)NC(=O)CN1CCC(N2CCCCC2)CC1)c1ccccc1 (stereo not shown) [Example 102]		210 nM		59% @	
